Drawing on ChEMBL document CHEMBL1770059, “Identification of chemicals to inhibit the kinase activity of leucine-rich repeat kinase 2 (LRRK2), a Parkinson's disease-associated protein” (Bioorg Med Chem Lett, 2011), this text covers IC50 and Activity for 1 compound.

Test [1] has as its target Leucine-rich repeat serine/threonine-protein kinase 2 (Homo sapiens, UniProt Q5S007, G2019S). The experiment in a line: Inhibition of purified N-terminal GST-tagged LRRK2 G2019S mutant autophosphorylation activity using myelin basic protein as substrate.
The test system of test [2] is Leucine-rich repeat serine/threonine-protein kinase 2 (Homo sapiens), Q5S007 [G2019S]. The experiment in a line: Inhibition of purified N-terminal GST-tagged LRRK2 G2019S mutant assessed as residual activity of enzyme at 10 uM.
The test system is the same in test [3]. The test can be described thus: Inhibition of purified N-terminal GST-tagged LRRK2 G2019S mutant assessed as residual activity of enzyme at 25 uM.
Test [4] addresses T1, Mitogen-activated protein kinase kinase kinase 5 (Homo sapiens) (UniProt Q99683).
T1 sequence (whole entry): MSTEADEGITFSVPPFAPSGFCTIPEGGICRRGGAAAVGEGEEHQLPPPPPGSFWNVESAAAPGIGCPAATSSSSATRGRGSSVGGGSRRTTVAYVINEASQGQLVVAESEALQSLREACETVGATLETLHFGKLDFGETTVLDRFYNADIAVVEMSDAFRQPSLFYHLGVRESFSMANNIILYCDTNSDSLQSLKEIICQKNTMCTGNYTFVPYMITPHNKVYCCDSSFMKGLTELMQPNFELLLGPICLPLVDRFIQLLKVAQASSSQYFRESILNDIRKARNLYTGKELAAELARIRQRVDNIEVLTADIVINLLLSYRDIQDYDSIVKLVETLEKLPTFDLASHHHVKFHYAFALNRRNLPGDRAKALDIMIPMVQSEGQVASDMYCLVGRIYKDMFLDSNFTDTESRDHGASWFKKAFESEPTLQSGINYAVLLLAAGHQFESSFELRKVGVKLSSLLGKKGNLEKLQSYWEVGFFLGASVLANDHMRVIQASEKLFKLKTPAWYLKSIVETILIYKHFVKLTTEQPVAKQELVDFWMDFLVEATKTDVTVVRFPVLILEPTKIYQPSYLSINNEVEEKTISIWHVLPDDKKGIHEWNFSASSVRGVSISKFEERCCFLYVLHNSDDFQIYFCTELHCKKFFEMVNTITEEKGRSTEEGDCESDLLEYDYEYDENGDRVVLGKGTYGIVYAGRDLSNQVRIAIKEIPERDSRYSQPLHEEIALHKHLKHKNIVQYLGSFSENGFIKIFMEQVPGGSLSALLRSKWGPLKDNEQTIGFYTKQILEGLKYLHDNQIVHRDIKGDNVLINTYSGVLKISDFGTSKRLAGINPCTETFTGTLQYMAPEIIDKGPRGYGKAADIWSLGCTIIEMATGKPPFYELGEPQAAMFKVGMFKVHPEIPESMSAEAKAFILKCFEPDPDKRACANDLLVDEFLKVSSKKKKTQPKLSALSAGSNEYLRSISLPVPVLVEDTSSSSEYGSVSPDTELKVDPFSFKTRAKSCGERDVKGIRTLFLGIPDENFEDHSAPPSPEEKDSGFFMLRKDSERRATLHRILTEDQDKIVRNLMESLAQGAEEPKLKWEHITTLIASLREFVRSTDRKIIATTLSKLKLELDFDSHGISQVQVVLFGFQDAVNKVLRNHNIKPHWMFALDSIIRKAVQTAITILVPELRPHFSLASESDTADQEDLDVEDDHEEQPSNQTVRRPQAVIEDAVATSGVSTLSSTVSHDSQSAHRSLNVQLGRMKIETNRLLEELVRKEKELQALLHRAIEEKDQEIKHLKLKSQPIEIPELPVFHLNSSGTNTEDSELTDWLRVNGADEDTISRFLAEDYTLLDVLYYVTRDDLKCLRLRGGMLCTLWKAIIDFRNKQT
The test can be described thus: Inhibition of ASK1 assessed as residual activity of enzyme at 25 uM.

Test [5] deals with Cyclin-dependent kinase 5/CDK5 activator 1 (Homo sapiens) (UniProt Q00535+Q15078). The experiment in a line: Inhibition of CDK5/p25 assessed as residual activity of enzyme at 25 uM. The class given is protein-complex assay.
Test [6] addresses T2, Mitogen-activated protein kinase kinase kinase 7 (Homo sapiens) (UniProt O43318).
T2 sequence (whole entry): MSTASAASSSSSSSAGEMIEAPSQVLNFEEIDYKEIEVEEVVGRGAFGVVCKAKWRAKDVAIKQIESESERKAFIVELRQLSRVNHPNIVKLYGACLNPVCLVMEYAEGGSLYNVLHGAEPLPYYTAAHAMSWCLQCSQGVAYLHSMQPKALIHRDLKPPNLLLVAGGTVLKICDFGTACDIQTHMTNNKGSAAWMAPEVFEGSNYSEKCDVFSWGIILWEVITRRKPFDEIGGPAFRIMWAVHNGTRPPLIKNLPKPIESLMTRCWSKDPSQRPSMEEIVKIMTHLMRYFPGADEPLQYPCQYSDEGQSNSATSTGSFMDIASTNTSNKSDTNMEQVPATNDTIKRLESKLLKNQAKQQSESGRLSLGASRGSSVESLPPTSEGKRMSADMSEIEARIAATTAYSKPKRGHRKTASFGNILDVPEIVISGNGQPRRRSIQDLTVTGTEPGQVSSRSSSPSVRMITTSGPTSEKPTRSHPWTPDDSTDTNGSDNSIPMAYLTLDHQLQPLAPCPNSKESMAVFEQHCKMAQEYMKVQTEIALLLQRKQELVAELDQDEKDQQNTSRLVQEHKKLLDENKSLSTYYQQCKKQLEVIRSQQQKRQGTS
The test can be described thus: Inhibition of TAK1 assessed as residual activity of enzyme at 10 uM.

In test [7] the target is T2, Mitogen-activated protein kinase kinase kinase 7 (Homo sapiens). The experiment in a line: Inhibition of TAK1 assessed as residual activity of enzyme at 25 uM.

pIC50: −log10 of the molar value.

Chain of Leucine-rich repeat serine/threonine-protein kinase 2 (Homo sapiens), Q5S007 [G2019S] (Q5S007 whole entry G2019S): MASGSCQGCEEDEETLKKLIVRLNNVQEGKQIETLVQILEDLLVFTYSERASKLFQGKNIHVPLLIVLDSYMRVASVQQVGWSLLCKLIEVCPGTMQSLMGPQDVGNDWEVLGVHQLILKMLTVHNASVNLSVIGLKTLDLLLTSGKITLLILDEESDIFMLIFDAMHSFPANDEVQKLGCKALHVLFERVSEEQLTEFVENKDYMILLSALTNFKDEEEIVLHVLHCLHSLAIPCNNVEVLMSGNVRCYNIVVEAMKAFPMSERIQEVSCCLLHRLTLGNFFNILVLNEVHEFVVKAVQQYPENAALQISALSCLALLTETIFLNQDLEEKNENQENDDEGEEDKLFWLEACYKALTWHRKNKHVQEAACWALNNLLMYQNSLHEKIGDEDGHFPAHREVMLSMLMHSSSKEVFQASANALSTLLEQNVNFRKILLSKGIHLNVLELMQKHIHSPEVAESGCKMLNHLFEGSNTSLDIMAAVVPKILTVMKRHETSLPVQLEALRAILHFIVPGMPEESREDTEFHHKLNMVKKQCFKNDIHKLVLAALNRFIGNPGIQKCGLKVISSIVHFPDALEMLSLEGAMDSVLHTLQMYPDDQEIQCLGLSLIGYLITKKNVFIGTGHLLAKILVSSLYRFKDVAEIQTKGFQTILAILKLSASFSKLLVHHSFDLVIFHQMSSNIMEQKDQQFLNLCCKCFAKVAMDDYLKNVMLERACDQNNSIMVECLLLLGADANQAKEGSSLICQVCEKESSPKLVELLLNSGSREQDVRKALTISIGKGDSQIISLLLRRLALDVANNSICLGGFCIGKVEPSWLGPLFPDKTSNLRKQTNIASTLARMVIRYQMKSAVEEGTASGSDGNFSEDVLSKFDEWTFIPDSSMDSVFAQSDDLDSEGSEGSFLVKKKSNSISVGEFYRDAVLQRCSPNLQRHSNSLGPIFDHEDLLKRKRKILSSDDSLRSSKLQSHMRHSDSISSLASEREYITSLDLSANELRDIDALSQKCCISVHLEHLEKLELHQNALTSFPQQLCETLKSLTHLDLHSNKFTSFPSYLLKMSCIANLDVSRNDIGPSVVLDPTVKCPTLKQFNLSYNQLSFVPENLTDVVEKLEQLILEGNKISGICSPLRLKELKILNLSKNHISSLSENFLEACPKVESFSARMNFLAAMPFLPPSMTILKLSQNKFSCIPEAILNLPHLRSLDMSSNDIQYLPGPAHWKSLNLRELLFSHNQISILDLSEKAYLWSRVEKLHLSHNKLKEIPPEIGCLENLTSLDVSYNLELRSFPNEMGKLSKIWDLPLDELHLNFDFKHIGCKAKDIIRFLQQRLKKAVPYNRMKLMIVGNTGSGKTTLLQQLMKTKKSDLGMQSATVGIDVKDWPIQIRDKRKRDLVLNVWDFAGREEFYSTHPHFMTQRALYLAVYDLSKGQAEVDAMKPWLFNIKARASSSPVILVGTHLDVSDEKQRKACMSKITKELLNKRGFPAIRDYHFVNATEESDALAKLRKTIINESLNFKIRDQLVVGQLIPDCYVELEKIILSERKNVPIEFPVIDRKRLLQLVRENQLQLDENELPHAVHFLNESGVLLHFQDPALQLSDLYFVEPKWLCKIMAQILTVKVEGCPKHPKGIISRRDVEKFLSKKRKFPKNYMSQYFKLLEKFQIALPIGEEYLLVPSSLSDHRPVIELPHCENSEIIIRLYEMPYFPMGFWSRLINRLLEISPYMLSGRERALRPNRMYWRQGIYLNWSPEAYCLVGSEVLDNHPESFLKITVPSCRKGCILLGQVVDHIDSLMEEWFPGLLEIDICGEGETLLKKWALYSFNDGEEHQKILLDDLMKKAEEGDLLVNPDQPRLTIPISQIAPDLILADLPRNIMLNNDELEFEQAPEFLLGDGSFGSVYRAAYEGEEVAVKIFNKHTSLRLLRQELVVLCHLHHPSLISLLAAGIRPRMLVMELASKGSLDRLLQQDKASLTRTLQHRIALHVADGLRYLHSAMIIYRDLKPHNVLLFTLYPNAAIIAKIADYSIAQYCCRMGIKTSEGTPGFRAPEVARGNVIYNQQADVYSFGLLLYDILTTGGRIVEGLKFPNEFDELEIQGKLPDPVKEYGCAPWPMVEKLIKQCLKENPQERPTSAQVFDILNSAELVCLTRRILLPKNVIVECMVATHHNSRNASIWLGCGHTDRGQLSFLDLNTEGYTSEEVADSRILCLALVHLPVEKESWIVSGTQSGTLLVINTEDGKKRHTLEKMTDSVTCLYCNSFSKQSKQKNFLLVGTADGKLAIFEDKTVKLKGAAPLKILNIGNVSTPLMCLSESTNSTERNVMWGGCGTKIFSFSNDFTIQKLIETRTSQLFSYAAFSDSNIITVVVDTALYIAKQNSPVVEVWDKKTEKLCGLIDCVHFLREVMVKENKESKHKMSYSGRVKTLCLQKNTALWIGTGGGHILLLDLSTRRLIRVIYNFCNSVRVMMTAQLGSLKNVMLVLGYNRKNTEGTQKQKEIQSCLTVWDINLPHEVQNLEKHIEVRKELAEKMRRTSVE
Chain of Leucine-rich repeat serine/threonine-protein kinase 2 (Q5S007 whole entry G2019S): as above
Chain of Cyclin-dependent kinase 5/CDK5 activator 1 (Homo sapiens) (Q00535 whole entry): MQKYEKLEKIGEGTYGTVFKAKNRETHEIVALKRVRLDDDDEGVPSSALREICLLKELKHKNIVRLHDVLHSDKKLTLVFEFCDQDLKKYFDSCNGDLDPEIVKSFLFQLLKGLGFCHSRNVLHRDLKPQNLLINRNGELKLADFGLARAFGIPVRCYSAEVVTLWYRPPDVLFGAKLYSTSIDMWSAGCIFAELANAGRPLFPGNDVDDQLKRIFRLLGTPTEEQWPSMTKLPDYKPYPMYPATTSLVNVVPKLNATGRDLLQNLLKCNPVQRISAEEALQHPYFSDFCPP
Chain of Cyclin-dependent kinase 5/CDK5 activator 1 (Homo sapiens) (Q15078 99-307 partner limits assumed): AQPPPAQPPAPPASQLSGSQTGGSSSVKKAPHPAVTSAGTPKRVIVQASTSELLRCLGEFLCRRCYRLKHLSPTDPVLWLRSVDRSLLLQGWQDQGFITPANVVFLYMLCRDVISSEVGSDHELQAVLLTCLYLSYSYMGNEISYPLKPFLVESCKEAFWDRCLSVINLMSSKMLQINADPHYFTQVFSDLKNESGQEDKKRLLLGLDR

As for `Cc1cc(N/N=C/c2ccncc2)nc2ccccc12`, the pIC50 (commonly −log10 of the IC50, conventionally taken in molar units) in test [1] was 5.39. In addition, the Activity in test [2] was found to be 28%; in test [3] it was 11%; in test [4] it was 68%; in test [5], 81%; in test [6], 68%; in test [7], 48%.
